Key:
chronic psoriasis = test: Multi-center, double blind study of ointments in mild to moderate chronic psoriasis; format: in vivo, patients; conditions: for percentage of patients healed or showing marked improvement (treatment effective): ointment twice a day for one month, 1% resveratrol, calcipotriol 50 mg/g, or both, 12 patients per group, control 10%
Excerpt: A prospectic, multi-center, double bind study was effected on patients of both sexes, of age above 18 years, with a clinical diagnosis of mild to moderate chronic psoriasis, with affected areas of at least 100 cm^2, but not above 40% of the total body area. Patients with pustular psoriasis or with psoriasis guttata, those who had received either topical treatment for two weeks before the test or systemic treatment in the 8 weeks before the test, as well as pregnant and nursing women or patients receiving more than 400 IU of vitamin D daily or any other medicament potentially affecting the progress of the disease, were excluded.
Out of 48 patients, 12 were included in the resveratrol-treated group (1% resveratrol ointment), 12 in the control group (ointment with no resveratrol), 12 in a group treated with a Vitamin D derivative (calcipotriol 50 mg/g) and 12 in a group treated with the combination resveratrol/Vitamin D derivative (1% resveratrol/50 mg/g calcipotriol). […] Patients were treated twice a day for one month with the different ointments.
At the end of the treatment, the clinical response was evaluated as “healed”, “marked improvement”, “slight improvement”, “no changes”, “worsening”. Quality life evaluations were carried out before and after the treatment, by using the “psoriasis Disability Index” (PDI) and the “Sickness Impact Profile” (SIP). The PDI questionnaire included 15 questions as follows: daily activities (5 questions), work or school, if applicable, (3 questions), personal relationships, (2 questions), spare time (4 questions), treatment, (1 question). […] The purpose of said questions was to evaluate symptoms and feelings of the patients concerning their psoriasis during the first 4 weeks of treatment.

[1] = test system: neutrophils, circulating cells, cells at the lesion site; test: General observations during and after topical treatment with resveratrol; format: in vivo
acne vulgaris = test: Randomized, double blind study of topical resveratrol (1% cream) in acne vulgaris; format: in vivo, patients; conditions: 1% cream daily for 10 weeks
Experimental: A randomized, double blind study was carried out in order to evaluate the effectiveness of topical administration of resveratrol in the treatment of acne vulgaris. Patients (n=30) of 15 to 19 years were all suffering from II or III degree acne (according to Pillsbury's classification), with multiple inflammatory lesions (20 to 62) and a number of comedos (28 to 120) on face and forehead. Only subjects who had received no systemic treatment with antibiotics for at least 4 weeks and had used no topical medicaments for 2 weeks before treatment were selected. During treatment with resveratrol, no further topical treatment was allowed. The effectiveness of the therapy was evaluated by comparing the conditions of the lesions before and after the treatment, according to an arbitrary score of 0 to 5 (0=worsening; 1=no changes; 2=slight improvement; 3=modest improvement; 4=good improvement; 5=excellent improvement).
Treatment consisted of daily topical administrations of resveratrol (1% cream) or of the carrier only, for 10 weeks in 30 patients suffering from acne vulgaris. The evaluated parameters were: number of acne lesions and comedos, erythema, seborrhoic skin and skin scaling.

[2] = test system: severe disabling exfoliative eczema; test: Clinical study of 1% resveratrol ointment in exfoliative eczema (six-area/six-sign score); format: in vivo, patients
Experimental: Experiments were carried out on patients (n=20) of both sexes, of age above 18 years, suffering from severe disabling exfoliative eczema unresponsive to the current topical treatments.
All patients were subjected to complete blood count and measurements of renal and hepatic functions prior to treatment. Patients who had been systemically treated two months previously with corticoids, antibiotics, psoralenes and other immunosuppressants or with UV were excluded. Patients were supposed not to use any corticoid topically.
Out of 20 patients, 10 were included in the resveratrol-treated group (1% resveratrol ointment) and 10 in the control group (ointment with no resveratrol). […] Patients were divided in two groups and treated twice a day for six months either with the resveratrol-containing ointment or with the placebo ointment (control group).
The progress of the disease was monitored by using the “six-area/six-sign score” method. The severity of the six signs used for monitoring the disease (erythema, pustules, excoriations, dehydration, scaling of the skin and lichenification), was evaluated on a 0-3 score (none, mean, moderate and severe), in each of the six body areas tested (head, neck, hands, elbows, feet, legs and trunk). The severity of itching and of sleep disorders was evaluated on a 0-3 score (none, mean, moderate and severe).

[3] = end of six months treatment, 10 treated patients

Structure (SMILES)	percentage of patients healed or showing marked improvement (treatment effective) (chronic psoriasis) [%]	reduction in the total PDI score (chronic psoriasis; after treatment, 95% CI 4.4, 8.6, P=0.001, control group 1.7)	neutrophils activity, circulating cells, cells at the lesion site ([1]; after topical treatment)	systemic or topical effects during and after the treatment ([1]; topical use)	cases in which effectiveness was due to the reduction of follicle hyperkeratosis (acne vulgaris) [%]	side effects (acne vulgaris)	treated subjects with significant reduction of erythema, number of acne lesions, comedos and scaling (acne vulgaris; control subjects 2%) [%]	mean of the values concerning the different clinical symptoms (six-area/six-sign score) ([2]; 1% resveratrol ointment twice a day, after the first two weeks of treatment, baseline 57.0 (SEM 1.6, n=10))	body area affected by eczema ([2]; during treatment, baseline 69% on the average) [%]	number of treated patients showing improvements only concerning skin scaling [2, 3]	number of treated patients with significant improvements of all the considered parameters [2, 3] [patients]	mean score for itching (0-3) ([2]; end of the treatment, baseline 2.3)	mean score for sleep disorders (0-3) ([2]; end of the treatment, baseline 2.9)
C=C1/C(=C\C=C2/CCC[C@]3(C)[C@@H]([C@H](C)/C=C/[C@@H](O)C4CC4)CC[C@@H]23)C[C@@H](O)C[C@@H]1O [Vitamin D derivatives, calcipotriol, reference compound]	47	–	–	–	–	–	–	–	–	–	–	–	–
Oc1ccc(/C=C/c2cc(O)cc(O)c2)cc1 [resveratrol, 3,4′,5-trihydroxy-trans-stilbene]	80	6.5	no changes of neutrophils activity	neither systemic nor topical effects	95	neither systemic nor topical side effects	96	21.5	27	two	8	0.6	1.0

Source: patent US20010056071A1, “Use of resveratrol for the treatment of exfoliative eczema, acne and psoriasis” (priority 2000, published 2001)
